In ChEMBL document CHEMBL4433222, “Treatment of Alzheimer's by PROTAC-Tau Protein Degradation” (ACS Med Chem Lett, 2019):

Assay: Half life in CD1 mouse brain at 30 mg/kg, ip by LC-MS/MS analysis
Type: ADME, organism-based

half-life: 46 min
SMILES: O=C(CCc1ccc2c(c1)[nH]c1ccncc12)NCCOCCOCCNc1cccc2c1C(=O)N(C1CCC(=O)NC1=O)C2=O (stereo unspecified)
